Test results published in US12581252B2, “Substituted pyrrolo[3,4-b]pyridines as PI3K-α inhibitors” (Relay Therapeutics, Inc., priority 2020, dated 2026).

Key:
H1047R PIK3CA enzyme = H1047R PIK3CA enzyme (Homo sapiens, UniProt P42336, H1047R); test: ADP-Glo Biochemical PIK3CA Kinase Assay
cells = conditions: Homo sapiens, MCF-10A, read-out: MCF10A IC50

Sequence of H1047R PIK3CA enzyme (P42336 whole entry H1047R): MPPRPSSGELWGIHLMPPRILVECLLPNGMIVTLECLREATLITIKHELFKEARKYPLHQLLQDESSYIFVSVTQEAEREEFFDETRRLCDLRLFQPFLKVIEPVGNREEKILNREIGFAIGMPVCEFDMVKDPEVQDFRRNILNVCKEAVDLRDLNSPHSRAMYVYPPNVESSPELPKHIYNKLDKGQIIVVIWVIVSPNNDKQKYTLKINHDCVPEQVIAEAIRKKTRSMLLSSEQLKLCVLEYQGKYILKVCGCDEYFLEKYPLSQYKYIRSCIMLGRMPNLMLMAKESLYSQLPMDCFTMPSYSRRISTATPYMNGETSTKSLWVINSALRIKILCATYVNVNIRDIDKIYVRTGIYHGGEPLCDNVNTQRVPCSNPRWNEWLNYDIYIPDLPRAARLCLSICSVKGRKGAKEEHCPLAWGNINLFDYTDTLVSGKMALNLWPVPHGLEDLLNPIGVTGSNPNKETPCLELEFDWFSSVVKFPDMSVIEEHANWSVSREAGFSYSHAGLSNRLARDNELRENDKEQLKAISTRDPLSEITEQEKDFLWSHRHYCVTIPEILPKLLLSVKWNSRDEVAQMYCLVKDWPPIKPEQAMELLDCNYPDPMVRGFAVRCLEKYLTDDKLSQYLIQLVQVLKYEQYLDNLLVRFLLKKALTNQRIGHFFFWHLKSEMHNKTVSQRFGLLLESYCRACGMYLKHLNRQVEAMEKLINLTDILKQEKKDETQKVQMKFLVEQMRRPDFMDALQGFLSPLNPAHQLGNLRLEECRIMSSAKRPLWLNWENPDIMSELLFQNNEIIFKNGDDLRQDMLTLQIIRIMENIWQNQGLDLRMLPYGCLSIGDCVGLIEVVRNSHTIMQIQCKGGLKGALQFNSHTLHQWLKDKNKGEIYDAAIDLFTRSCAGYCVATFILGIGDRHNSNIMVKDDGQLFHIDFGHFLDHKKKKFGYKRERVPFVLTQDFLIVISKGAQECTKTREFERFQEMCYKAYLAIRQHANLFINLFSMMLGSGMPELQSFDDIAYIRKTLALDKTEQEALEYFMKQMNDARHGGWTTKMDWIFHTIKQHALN
Sequence of H1047R PIK3CA enzyme (P27986 whole entry partner): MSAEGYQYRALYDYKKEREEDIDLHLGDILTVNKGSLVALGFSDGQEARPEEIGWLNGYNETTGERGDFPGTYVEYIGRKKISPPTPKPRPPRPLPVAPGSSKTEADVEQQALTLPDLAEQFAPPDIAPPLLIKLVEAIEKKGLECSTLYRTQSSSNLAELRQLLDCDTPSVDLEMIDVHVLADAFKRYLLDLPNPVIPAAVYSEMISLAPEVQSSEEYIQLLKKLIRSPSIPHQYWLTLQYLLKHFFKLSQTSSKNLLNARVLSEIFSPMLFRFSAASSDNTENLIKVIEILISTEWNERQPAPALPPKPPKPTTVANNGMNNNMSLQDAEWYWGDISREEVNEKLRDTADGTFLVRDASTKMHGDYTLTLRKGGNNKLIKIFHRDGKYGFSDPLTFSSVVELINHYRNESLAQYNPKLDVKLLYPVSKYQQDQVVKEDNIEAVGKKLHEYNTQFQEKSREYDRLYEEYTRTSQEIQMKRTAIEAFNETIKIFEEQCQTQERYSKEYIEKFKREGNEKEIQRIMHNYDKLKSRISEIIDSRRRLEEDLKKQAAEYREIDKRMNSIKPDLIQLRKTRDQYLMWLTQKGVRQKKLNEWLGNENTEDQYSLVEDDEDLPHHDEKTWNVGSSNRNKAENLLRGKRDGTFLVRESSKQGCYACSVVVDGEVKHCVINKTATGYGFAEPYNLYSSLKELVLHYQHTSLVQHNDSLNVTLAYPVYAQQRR

SMILES | IC50 (H1047R PIK3CA enzyme) | IC50 (cells)
COc1cccc(-c2cc(NC(=O)c3cc(F)cc(C(F)(F)F)c3)c3c(c2)C(=O)N[C@H]3c2cc(F)ccc2Cl)n1 (stereo in doubt) [Compound I-1006] | ≤ 100 nM | < 1000 nM
N#CCc1cc(NC(=O)N2C[C@](O)(C(F)(F)F)c3cc(F)ccc32)c2c(c1)C(=O)N[C@@H]2c1cc(F)ccc1Cl (single isomer, unassigned) [Compound I-2627] | ≤ 100 nM | < 1000 nM
O=C1N[C@@H](c2cc(F)ccc2Cl)c2c(NC(=O)N3C[C@@H](O)c4ccc(F)cc43)cccc21 (stereo in doubt) [Compound I-2171] | ≤ 100 nM | < 1000 nM
O=C(Nc1cc(-c2cncnc2)cc2c1C(c1cc(F)ccc1Cl)NC2=O)c1cc(F)cc(C(F)(F)F)c1 (centres unmarked) [Compound I-967] | ≤ 100 nM | < 1000 nM
O=C1NC(c2cc(F)ccc2Cl)c2c(NC(=O)N3CC(O)(C(F)(F)F)c4cc(F)ccc43)cc(Cl)cc21 (mixture of isomers) [Compound I-2482] | ≤ 100 nM | < 1000 nM
O=C(Nc1cc(-c2ccnn2CC2CC2)cc2c1C(c1cc(F)ccc1Cl)NC2=O)c1cc(F)cc(C(F)(F)F)c1 (centres unmarked) [Compound I-1038] | ≤ 100 nM | < 1000 nM
N#CCc1cc(NC(=O)N2C[C@](O)(C(F)(F)F)c3ccccc32)c2c(c1)C(=O)N[C@@H]2c1cc(F)ccc1Cl (single isomer, unassigned) [Compound I-2605] | ≤ 100 nM | < 1000 nM
O=C(Nc1cc(NC2=NC(C(F)(F)F)CO2)cc2c1C(c1cc(F)ccc1Cl)NC2=O)c1cc(F)cc(C(F)(F)F)c1 (centres unmarked) [Compound I-2360] | ≤ 100 nM | 5000 to 10000 nM
O=C(Nc1cc(-c2ccc3ncnn3c2)cc2c1[C@H](c1cc(F)ccc1Cl)NC2=O)c1cc(F)cc(C(F)(F)F)c1 (single isomer, unassigned) [Compound I-945] | ≤ 100 nM | < 1000 nM
O=C(Nc1cc(-c2ncco2)cc2c1C(c1cc(F)ccc1Cl)NC2=O)c1cc(F)cc(C(F)(F)F)c1 (centres unmarked) [Compound I-915] | ≤ 100 nM | < 1000 nM
N#Cc1c(N)cc(NC(=O)c2cc(F)cc(C(F)(F)F)c2)c2c1C(=O)NC2c1cc(F)ccc1Cl (centres unmarked) [Compound I-2223] | ≤ 100 nM | < 1000 nM
CSCc1cc(NC(=O)c2cc(F)cc(C(F)(F)F)c2)c2c(c1)C(=O)NC2c1cc(F)ccc1Cl (centres unmarked) [Compound I-914] | ≤ 100 nM | < 1000 nM
Cc1noc2ncc(-c3cc(NC(=O)c4cc(F)cc(C(F)(F)F)c4)c4c(c3)C(=O)NC4c3cc(F)ccc3Cl)cc12 (centres unmarked) [Compound I-1039] | ≤ 100 nM | < 1000 nM
O=C(Nc1cc(Nc2nc3ccccc3[nH]2)cc2c1C(c1cc(F)ccc1Cl)NC2=O)c1cc(F)cc(C(F)(F)F)c1 (centres unmarked) [Compound I-993] | ≤ 100 nM | 1000 to 5000 nM
O=C1N[C@@H](c2cc(F)ccc2Cl)c2c(NC(=O)N3C[C@](O)(C(F)(F)F)c4cc(F)ccc43)ccc(-n3ccnn3)c21 (single isomer, unassigned) [Compound I-2520] | ≤ 100 nM | < 1000 nM
O=C1NC(c2cc(F)ccc2Cl)c2c(NC(=O)c3cc(F)cc4c(Cl)c[nH]c34)cccc21 (centres unmarked) [Compound I-1161] | 100 to 500 nM | 1000 to 5000 nM
CC(C#N)c1cc(NC(=O)c2cc(F)cc(C(F)(F)F)c2)c2c(c1)C(=O)N[C@H]2c1cc(F)ccc1Cl (some centres unmarked) [Compound I-2290] | ≤ 100 nM | < 1000 nM
O=C(Nc1cc(-c2cnc(N3CCOCC3)nc2)cc2c1C(c1cc(F)ccc1Cl)NC2=O)c1cc(F)cc(C(F)(F)F)c1 (centres unmarked) [Compound I-930] | ≤ 100 nM | 1000 to 5000 nM
N#Cc1cc(NC(=O)N2C[C@](O)(C(F)(F)F)c3cc(F)ccc32)c2c(c1)C(=O)N[C@@H]2c1cc(F)ccc1Cl (single isomer, unassigned) [Compound I-2562] | ≤ 100 nM | < 1000 nM

SMILES | IC50 (H1047R PIK3CA enzyme) | IC50 (cells)
O=C(Nc1cc(-c2cnn(-c3ncccn3)c2)cc2c1C(c1cc(F)ccc1Cl)NC2=O)c1cc(F)cc(C(F)(F)F)c1 (centres unmarked) [Compound I-1418] | ≤ 100 nM | < 1000 nM
O=C(Nc1cc(-c2ccc(=O)n(C3CC3)c2)nc2c1[C@H](c1cc(F)ccc1Cl)NC2=O)c1cc(F)cc(C(F)(F)F)c1 [Compound I-747] | ≤ 100 nM | < 1000 nM
O=C1N[C@@H](c2cc(F)ccc2Cl)c2c(NC(=O)N3C[C@@](O)(C(F)(F)F)c4cc(F)ccc43)cc(Cl)cc21 (single isomer, unassigned) [Compound I-2513] | ≤ 100 nM | < 1000 nM
O=C(Nc1cc(-c2cnsc2)cc2c1C(c1cc(F)ccc1Cl)NC2=O)c1cc(F)cc(C(F)(F)F)c1 (centres unmarked) [Compound I-1068] | ≤ 100 nM | < 1000 nM
O=C1N[C@H](c2ccccc2Cl)c2c(NC(=O)c3csc4ccccc34)ccnc21 [Compound I-33] | 100 to 500 nM | 1000 to 5000 nM
Cc1ccccc1C1NC(=O)c2cc(Br)cc(NC(=O)c3csc4ccccc34)c21 (centres unmarked) [Compound I-29, N-[6-bromo-3-(2-methylphenyl)-1-oxo-2,3-dihydro-1H-isoindol-4-yl]-1-benzothiophene-3-carboxamide] | ≤ 100 nM | < 1000 nM
N#CC1(COc2cc(NC(=O)N3CC(O)c4cc(F)ccc43)c3c(c2)C(=O)NC3c2cc(F)ccc2Cl)CC1 (mixture of isomers) [Compound I-2489] | ≤ 100 nM | 5000 to 10000 nM
COc1nccc(N2CC(c3cc(NC(=O)c4cc(F)cc(C(F)(F)F)c4)c4c(c3)C(=O)NC4c3cc(F)ccc3Cl)C2)n1 (centres unmarked) [Compound I-1162] | ≤ 100 nM | < 1000 nM
NCCc1cc(NC(=O)N2C[C@H](O)c3cc(F)ccc32)c2c(c1)C(=O)N[C@@H]2c1cc(F)ccc1Cl (single isomer, unassigned) [Compound I-2443] | ≤ 100 nM | 10000 to 36000 nM
Cc1ccccc1[C@H]1NC(=O)c2cccc(NC(=O)c3csc4c(F)cccc34)c21 [Compound I-38] | 100 to 500 nM | 1000 to 5000 nM
Cn1ccnc1Nc1cc(NC(=O)c2cc(F)cc(C(F)(F)F)c2)c2c(c1)C(=O)NC2c1cc(F)ccc1Cl (centres unmarked) [Compound I-1075] | ≤ 100 nM | < 1000 nM
Cc1ccccc1C1NC(=O)c2cccc(NC(=O)N3CC(C)(C)c4ccccc43)c21 (centres unmarked) [Compound I-45] | 1000 to 10000 nM | 10000 to 36000 nM
O=C(Nc1cc(-c2ccn[nH]2)cc2c1[C@H](c1cc(F)ccc1Cl)NC2=O)c1cc(F)cc(C(F)(F)F)c1 [Compound I-865] | ≤ 100 nM | < 1000 nM
O=C(Nc1cc(-c2ccc3ncnn3c2)cc2c1[C@H](c1cc(F)cc(F)c1Cl)NC2=O)c1cc(F)cc(C(F)(F)F)c1 (stereo in doubt) [Compound I-1062] | ≤ 100 nM | < 1000 nM
CC(C)(O)c1cc(NC(=O)c2cc(F)cc(Cl)c2)c2c(c1)C(=O)N[C@H]2c1cc(F)ccc1Cl [Compound I-298] | ≤ 100 nM | < 1000 nM
N#CCOc1cc(NC(=O)c2cc(F)cc(C(F)(F)F)c2)c2c(c1)C(=O)NC2c1cc(F)ccc1Cl (centres unmarked) [Compound I-1160] | ≤ 100 nM | < 1000 nM
Cn1cc(-c2cc(NC(=O)c3cc(F)cc(C(F)(F)F)c3)c3c(c2)C(=O)NC3c2cc(F)ccc2Cl)cn1 (centres unmarked) [Compound I-811] | ≤ 100 nM | < 1000 nM
O=C(Nc1cc(NC2=NC3(CO2)CC(F)(F)C3)cc2c1C(c1cc(F)ccc1Cl)NC2=O)c1cc(F)cc(C(F)(F)F)c1 (centres unmarked) [Compound I-2409] | ≤ 100 nM | 5000 to 10000 nM
